In assay [1] the test system is fully transected rat patellar tendons. As to the kind of experiment: Healing of fully transected rat patellar tendon, delivery via fibrin glue. It counts as in vivo. To be noted: for tendon healing, H&E staining: Oxo-M 1 mM, 4-PPBP 10 μM in fibrin; for alignment of collagen fibers (Picrosirius Red, automated digital image processing): n=6; for effect on induced tenogenic differentiation of PTSCs and tendon healing: overall statement.

The subject of assay [2] is FAK. As to the kind of experiment: Western blot, phosphorylation of FAK in PTSCs. To be noted: 12 hours treatment in PTSCs. It counts as cell-based, rat. The method, then: (§1) Activation of FAK and ERK1/2 signaling by Oxo-M and 4-PPBP was further confirmed by western blot and siRNA knockdown (KD). […] With combined Oxo-M and 4-PPBP, both P-FAK and P-ERK1/2 were detected (FIG. 3A). […] In addition, siRNA KD of FAK and ERK1/2 were performed as described previously (Lee, et al., 2015, supra), which is hereby incorporated herein by reference in its entirety for all purposes.

Assay [3] concerns FAK. Description: Western blot, P-FAK in CD146- tendon cells. It counts as cell-based, rat. The following applies: CD146− tendon cells (excluding PTSCs). As to the method:
as §1

Assay [4] deals with CD146+ perivascular tendon stem/progenitor cells (PTSCs). Type of assay: cell-based, rat.
The subject of another assay is ERK1/2. As to the kind of experiment: Western blot, phosphorylation of ERK1/2 in PTSCs. The following applies: 12 hours treatment in PTSCs. It counts as cell-based, rat. As to the method:
as §1

Each structure is given as a SMILES string. Entries after “also recorded” stand apart in the source; their conditions may differ.

As for `O=C(O)/C=C\C(=O)O.c1ccc(CCCCN2CCC(c3ccccc3)CC2)cc1` [4-PPBP, 4-phenyl-1-(4-phenylbutyl)-piperidine maleate], in assay [1] (1 week post-op), the “collagen fibers, polarized Picrosirius Red images” value is “disrupted collagen structure” and the “tendon healing, H&E staining” value was “disorganized scar-like tissue”. In addition, in assay [1] (2 weeks post-op), the “collagen fibers, polarized Picrosirius Red images” value is “disrupted collagen structure”; the “collagen in healing zone, Masson's Trichrome staining” value is on record as “disrupted collagen structure”; the “tendon healing, H&E staining” value is listed as “scar-like healing”. For the same compound, in assay [1], the “alignment of collagen fibers (Picrosirius Red, automated digital image processing)” value is recorded as “disoriented fibers”; the “effect on induced tenogenic differentiation of PTSCs and tendon healing” value is “only minimal effect”. Also, in the assay with FAK [2], the “phosphorylation of FAK (P-FAK)” value is on record as “resulted in phosphorylation”. In the assay on FAK [3], the P-FAK band result is on record as “no P-FAK band”. Also, in assay [4] (maleate), the COL-I gene expression result was “elevated; also recorded: significantly increased” and the COL-III gene expression entry is “elevated; also recorded: significantly increased”.
On to `C[N+](C)(C)CC#CCN1CCCC1=O` [Oxo-M, Oxotremorine methiodide], for which, in assay [1] (1 week post-op), the “collagen fibers, polarized Picrosirius Red images” value is reported as “disrupted collagen structure” and the “tendon healing, H&E staining” value is recorded as “disorganized scar-like tissue”. For the same compound, in assay [1] (2 weeks post-op), the “collagen fibers, polarized Picrosirius Red images” value is “disrupted collagen structure”; the “collagen in healing zone, Masson's Trichrome staining” value is reported as “disrupted collagen structure”; the “tendon healing, H&E staining” value is reported as “scar-like healing”. In assay [1], the “alignment of collagen fibers (Picrosirius Red, automated digital image processing)” value was “disoriented fibers”; the “effect on induced tenogenic differentiation of PTSCs and tendon healing” value was “only minimal effect”. The “phosphorylation of FAK (P-FAK)” value with FAK [2] was “resulted in phosphorylation”. Also, the “phosphorylation of ERK1/2 (P-ERK1/2)” value in the assay with ERK1/2 was “resulted in phosphorylation”. Moreover, the P-FAK band entry in the assay with FAK [3] is listed as “no P-FAK band”. In addition, in assay [4], the Scx gene expression result was “significant increases; also recorded: significantly increased”, the Tn-C gene expression entry was “significant increases; also recorded: significantly increased” and the VIM gene expression entry is reported as “significant increases; also recorded: significantly increased”.

Values taken from patent publication US10583117B2, “Oxo-M and 4-PPBP induction of tenogenic differentiation of perivascular tendon stem cells” (The Trustees of Columbia University in the City of New York, priority 2016, dated 2020).
